Here are results for 24 compounds from patent publication US20260258032A1, “TYROSINE KINASE 2 INHIBITORS AND USES THEREOF” (BIOGEN MA INC., priority 2022, published 2026).

Where a name gives a salt, the structure may show the parent alone.

The subject of assay [1] is Tyk2 kinase activity on STAT4. Put plainly: pSTAT4 cell assay (MSD, NK92 cells). The following applies: compounds 1 hr. It counts as cell-based. The procedure, abridged: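 IC50 values come from 4-parameter logistic fits of normalized percent activity. Phospho-STAT was read by MSD (anti-STAT4 antibodies) in NK92 lysates after a 15 min stimulation with 30 ng/mL IL2. The serum-starved cells had been given compound for 1 h (10 points, four-fold, top 10 μM).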

A further assay deals with T1, JH2 domain of human Tyk2 (Homo sapiens, UniProt P29597).
T1 construct: 10×His-tagged TYK2 JH2 domain (amino acid 575-876)
Put plainly: JH2 biochemical assay (TR-FRET probe displacement). Type of assay: binding. The procedure, abridged: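 A probe-displacement TR-FRET readout: compounds, tested in 3-fold, 10-point dilutions starting at […], compete with 2 nM tracer for 2 nM His-tagged JH2 (residues 575-876) detected by 0.1 nM Tb-anti-His over 60 min. IC50 comes from 4-parameter fits of normalized 520/495 nm ratios.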
For orientation: TR-FRET usually uses a lanthanide donor and a delayed reading to cut background.

[2] abbreviates: TR-FRET probe displacement, JH2 domain of human Tyk2.

T1 sequence (P29597 575-876): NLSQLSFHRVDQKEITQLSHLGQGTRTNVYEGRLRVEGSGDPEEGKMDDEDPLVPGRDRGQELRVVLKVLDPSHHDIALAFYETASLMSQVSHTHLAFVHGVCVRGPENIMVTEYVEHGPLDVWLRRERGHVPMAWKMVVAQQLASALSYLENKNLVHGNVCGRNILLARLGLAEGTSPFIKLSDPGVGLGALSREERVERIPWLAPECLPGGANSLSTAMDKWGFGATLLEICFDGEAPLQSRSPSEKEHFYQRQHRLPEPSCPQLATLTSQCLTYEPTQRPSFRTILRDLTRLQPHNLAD

A word on the IC50: it is the concentration that inhibits the measured activity by half. A lower IC50 goes with higher potency. Regarding `COCCn1cc(-c2cc(N3CC4(CC4)c4cnc(NC(C)=O)cc43)nc(C(C)(F)F)n2)cn1` [Example 394, N-(1′-(2-(1,1-difluoroethyl)-6-(1-(2-methoxyethyl)-1H-pyrazol-4-yl)pyrimidin-4-yl)-1′,2′-dihydrospiro[cyclopropane-1,3′-pyrrolo[3,2-c]pyridin]-6′-yl)acetamide], the IC50 (in assay [1] (then stimulated 15 minutes); on JH2 domain of human Tyk2 (setting [2])) was not above 0.01 µM in each case.

Turning to `CC(=O)Nc1cc2c(cn1)C1(CC1)CN2c1cc(C)nc(OC2CC(C)C2)n1` (stereo not drawn) [Example 367, N-(1′-(6-methyl-2-(3-methylcyclobutoxy)pyrimidin-4-yl)-1′,2′-dihydrospiro[cyclopropane-1,3′-pyrrolo[3,2-c]pyridin]-6′-yl)acetamide], the values for the IC50 (in assay [1] (stimulated 15 minutes); at JH2 domain of human Tyk2 (JH2 biochemical assay)) were not below 1 µM and 0.1 to 1 µM, respectively.

For the compound `COCc1cc(N2CC3(CC3)c3cnc(NC(C)=O)cc32)nc(C(C)(F)F)n1` [Example 397, N-(1′-(2-(1,1-difluoroethyl)-6-(methoxymethyl)pyrimidin-4-yl)-1′,2′-dihydrospiro[cyclopropane-1,3′-pyrrolo[3,2-c]pyridin]-6′-yl)acetamide], the IC50 in assay [1] (then stimulated 15 minutes) was 0.1 to 1 µM; at JH2 domain of human Tyk2 (setting [2]), not above 0.01 µM.

In the case of `CCc1nc(C)cc(N2CC3(CC3)c3cnc(NC(C)=O)cc32)n1` [Example 64, N-(1′-(2-ethyl-6-methylpyrimidin-4-yl)-1′,2′-dihydrospiro[cyclopropane-1,3′-pyrrolo[3,2-c]pyridin]-6′-yl)acetamide], the IC50 in assay [1] (stimulated 15 minutes) is not below 1 µM; at JH2 domain of human Tyk2 (JH2 biochemical assay), 0.01 to 0.1 µM.

`CC(=O)Nc1cc2c(cn1)C1(CC1)CN2c1cc(C(C)F)nc(C(C)(F)F)n1` (stereo not drawn) [Example 400, N-(1′-(2-(1,1-difluoroethyl)-6-(1-fluoroethyl)pyrimidin-4-yl)-1′,2′-dihydrospiro[cyclopropane-1,3′-pyrrolo[3,2-c]pyridin]-6′-yl)acetamide]: the IC50 in assay [1] (then stimulated 15 minutes) was 0.01 to 0.1 µM; at JH2 domain of human Tyk2 (setting [2]), not above 0.01 µM.

Take `CC(=O)Nc1cc2c(cn1)C1(CC1)CN2c1cc(C)nc(OCC(C)(C)O)n1` [Example 286, N-(1′-(2-(2-hydroxy-2-methylpropoxy)-6-methylpyrimidin-4-yl)-1′,2′-dihydrospiro[cyclopropane-1,3′-pyrrolo[3,2-c]pyridin]-6′-yl)acetamide]: the results for the IC50 (in assay [1] (stimulated 15 minutes); at JH2 domain of human Tyk2 (JH2 biochemical assay)) were 0.1 to 1 µM and 0.01 to 0.1 µM, respectively.

In the case of `CC(=O)Nc1cc2c(cn1)C1(CC1)CN2c1cc(=O)[nH]c(C(C)(F)F)n1` [Example 133, N-(1′-(2-(1,1-difluoroethyl)-6-oxo-1,6-dihydropyrimidin-4-yl)-1′,2′-dihydrospiro[cyclopropane-1,3′-pyrrolo[3,2-c]pyridin]-6′-yl)acetamide], the IC50 was not below 1 µM in assay [1] (stimulated 15 minutes) and not above 0.01 µM at JH2 domain of human Tyk2 (JH2 biochemical assay).

As for `COC1CCN(c2nc(C)cc(N3CC4(CC4)c4cnc(NC(C)=O)cc43)n2)C1` (stereo not drawn) [Example 137, N-(1′-(2-(3-methoxypyrrolidin-1-yl)-6-methylpyrimidin-4-yl)-1′,2′-dihydrospiro[cyclopropane-1,3′-pyrrolo[3,2-c]pyridin]-6′-yl)acetamide], the IC50 in assay [1] (stimulated 15 minutes) was 0.1 to 1 µM; on JH2 domain of human Tyk2 (JH2 biochemical assay), not above 0.01 µM.

On to `CC(=O)Nc1cc2c(cn1)C1(CC1)CN2c1cc(C)cc(OC2CCCC2)n1` [Example 354, N-(1′-(6-(cyclopentyloxy)-4-methylpyridin-2-yl)-1′,2′-dihydrospiro[cyclopropane-1,3′-pyrrolo[3,2-c]pyridin]-6′-yl)acetamide trifluoroacetate], for which the IC50 in assay [1] (stimulated 15 minutes) is not below 1 µM; on JH2 domain of human Tyk2 (JH2 biochemical assay), 0.1 to 1 µM.

Take `CC(=O)Nc1cc2c(cn1)C1(CC1)CN2c1cc(C)cc(OC2CC(F)C2)n1` (stereo not drawn) [Example 348, N-(1′-(6-(3-fluorocyclobutoxy)-4-methylpyridin-2-yl)-1′,2′-dihydrospiro[cyclopropane-1,3′-pyrrolo[3,2-c]pyridin]-6′-yl)acetamide trifluoroacetate]: the IC50 was not below 1 µM in assay [1] (stimulated 15 minutes) and 0.1 to 1 µM at JH2 domain of human Tyk2 (JH2 biochemical assay).

On to `CCn1cc(-c2cc(C)cc(N3CC4(CC4)c4cnc(NC(C)=O)cc43)n2)cn1` [Example 260, N-(1′-(6-(1-ethyl-1H-pyrazol-4-yl)-4-methylpyridin-2-yl)-1′,2′-dihydrospiro[cyclopropane-1,3′-pyrrolo[3,2-c]pyridin]-6′-yl)acetamide trifluoroacetate], for which the IC50 was not below 1 µM in assay [1] (stimulated 15 minutes) and 0.01 to 0.1 µM on JH2 domain of human Tyk2 (JH2 biochemical assay).

`CC(=O)Nc1cc2c(cn1)C1(CC1)CN2c1cc(C)nc(N2CCOCC2)n1` [Example 213, N-(1′-(6-methyl-2-morpholinopyrimidin-4-yl)-1′,2′-dihydrospiro[cyclopropane-1,3′-pyrrolo[3,2-c]pyridin]-6′-yl)acetamide]: the values for the IC50 (in assay [1] (stimulated 15 minutes); at JH2 domain of human Tyk2 (JH2 biochemical assay)) were not below 1 µM and 0.01 to 0.1 µM, respectively.

On to `CC(=O)Nc1cc2c(cn1)C1(CC1)CN2c1cc(C)nc(OCC23CC(C)(CO2)C3)n1` [Example 371, N-(1′-(6-methyl-2-((4-methyl-2-oxabicyclo[2.1.1]hexan-1-yl)methoxy)pyrimidin-4-yl)-1′,2′-dihydrospiro[cyclopropane-1,3′-pyrrolo[3,2-c]pyridin]-6′-yl)acetamide], for which the IC50 (in assay [1] (stimulated 15 minutes); at JH2 domain of human Tyk2 (JH2 biochemical assay)) was not below 1 µM each time.

As for `CC(=O)Nc1cc2c(cn1)C1(CC1)CN2c1cc(NCC(C)F)nc(C(C)(F)F)n1` (stereo not drawn) [Example 169, N-(1′-(2-(1,1-difluoroethyl)-6-((2-fluoropropyl)amino)pyrimidin-4-yl)-1′,2′-dihydrospiro[cyclopropane-1,3′-pyrrolo[3,2-c]pyridin]-6′-yl)acetamide trifluoroacetate], the IC50 in assay [1] (stimulated 15 minutes) was 0.01 to 0.1 µM; on JH2 domain of human Tyk2 (JH2 biochemical assay), not above 0.01 µM.

Consider `CC(=O)Nc1cc2c(cn1)C1(CC1)CN2c1cc(NCC2CCN2C)nc(C(C)(F)F)n1` (stereo not drawn) [Example 174, N-(1′-(2-(1,1-difluoroethyl)-6-(((1-methylazetidin-2-yl)methyl)amino)pyrimidin-4-yl)-1′,2′-dihydrospiro[cyclopropane-1,3′-pyrrolo[3,2-c]pyridin]-6′-yl)acetamide], for which the results for the IC50 (in assay [1] (stimulated 15 minutes); on JH2 domain of human Tyk2 (JH2 biochemical assay)) were not below 1 µM and 0.01 to 0.1 µM, respectively.

Consider `CC(=O)Nc1cc2c(cn1)C1(CC1)CN2c1cc(C)nc(C(F)(F)F)n1` [Example 61, N-(1′-(6-methyl-2-(trifluoromethyl)pyrimidin-4-yl)-1′,2′-dihydrospiro[cyclopropane-1,3′-pyrrolo[3,2-c]pyridin]-6′-yl)acetamide], for which the IC50 is not below 1 µM in assay [1] (stimulated 15 minutes) and 0.01 to 0.1 µM on JH2 domain of human Tyk2 (JH2 biochemical assay).

Turning to `CC(=O)Nc1cc2c(cn1)C1(CC1)CN2c1cc(C)cc(N2CC(C(F)F)C2)n1` [Example 201, N-(1′-(6-(3-(difluoromethyl)azetidin-1-yl)-4-methylpyridin-2-yl)-1′,2′-dihydrospiro[cyclopropane-1,3′-pyrrolo[3,2-c]pyridin]-6′-yl)acetamide trifluoroacetate], the IC50 was not below 1 µM in assay [1] (stimulated 15 minutes) and 0.01 to 0.1 µM on JH2 domain of human Tyk2 (JH2 biochemical assay).

`COCC(F)(F)c1nc(C)cc(N2CC3(CC3)c3cnc(NC(C)=O)cc32)n1` [Example 401, N-(1′-(2-(1,1-difluoro-2-methoxyethyl)-6-methylpyrimidin-4-yl)-1′,2′-dihydrospiro[cyclopropane-1,3′-pyrrolo[3,2-c]pyridin]-6′-yl)acetamide trifluoroacetate]: the IC50 is not below 1 µM in assay [1] (then stimulated 15 minutes) and 0.01 to 0.1 µM at JH2 domain of human Tyk2 (setting [2]).

For the compound `COC1(C)CC1Nc1cc(N2CC3(CC3)c3cnc(NC(C)=O)cc32)nc(C(C)(F)F)n1` (stereo not drawn) [Example 173, N-(1′-(2-(1,1-difluoroethyl)-6-((2-methoxy-2-methylcyclopropyl)amino)pyrimidin-4-yl)-1′,2′-dihydrospiro[cyclopropane-1,3′-pyrrolo[3,2-c]pyridin]-6′-yl)acetamide trifluoroacetate], the figures for the IC50 (in assay [1] (stimulated 15 minutes); at JH2 domain of human Tyk2 (JH2 biochemical assay)) were 0.01 to 0.1 µM and not above 0.01 µM, respectively.

For `CCC(F)(F)c1nc(C)cc(N2CC3(CC3)c3cnc(NC(C)=O)cc32)n1` [Example 304, N-(1′-(2-(1,1-difluoropropyl)-6-methylpyrimidin-4-yl)-1′,2′-dihydrospiro[cyclopropane-1,3′-pyrrolo[3,2-c]pyridin]-6′-yl)acetamide trifluoroacetate], the IC50 is 0.01 to 0.1 µM in assay [1] (stimulated 15 minutes) and not above 0.01 µM at JH2 domain of human Tyk2 (JH2 biochemical assay).

For `CC(=O)Nc1cc2c(cn1)C1(CC1)CN2c1cc(C)cc(N2CC(C#N)(CF)C2)n1` [Example 196, N-(1′-(6-(3-cyano-3-(fluoromethyl)azetidin-1-yl)-4-methylpyridin-2-yl)-1′,2′-dihydrospiro[cyclopropane-1,3′-pyrrolo[3,2-c]pyridin]-6′-yl)acetamide], the figures for the IC50 (in assay [1] (stimulated 15 minutes); at JH2 domain of human Tyk2 (JH2 biochemical assay)) were 0.1 to 1 µM and 0.01 to 0.1 µM, respectively.

Consider `CC(=O)Nc1cc2c(cn1)C1(CC1)CN2c1cccc(S(C)(=O)=O)n1` [Example 93, N-(1′-(6-(methylsulfonyl)pyridin-2-yl)-1′,2′-dihydrospiro[cyclopropane-1,3′-pyrrolo[3,2-c]pyridin]-6′-yl)acetamide], for which the IC50 (in assay [1] (stimulated 15 minutes); on JH2 domain of human Tyk2 (JH2 biochemical assay)) was not above 0.01 µM each time.

Consider `CC(=O)Nc1cc2c(cn1)C1(CC1)CN2c1cc(N2CCOCC2)nc(C(C)(F)F)n1` [Example 52, N-(1′-(2-(1,1-difluoroethyl)-6-morpholinopyrimidin-4-y1)-1′,2′-dihydrospiro[cyclopropane-1,3′-pyrrolo[3,2-c]pyridin]-6′-yl)acetamide], for which the IC50 was 0.1 to 1 µM in assay [1] (stimulated 15 minutes) and not above 0.01 µM at JH2 domain of human Tyk2 (JH2 biochemical assay).

`CC(=O)Nc1cc2c(cn1)C1(CC1)CN2c1cc(C)nc(-c2cnn(C3COC3)c2)n1` [Example 251, N-(1′-(6-methyl-2-(1-(oxetan-3-yl)-1H-pyrazol-4-yl)pyrimidin-4-yl)-1′,2′-dihydrospiro[cyclopropane-1,3′-pyrrolo[3,2-c]pyridin]-6′-yl)acetamide trifluoroacetate]: the IC50 in assay [1] (stimulated 15 minutes) is not below 1 µM; on JH2 domain of human Tyk2 (JH2 biochemical assay) it was 0.01 to 0.1 µM.
